Measurements as given in PubChem BioAssay AID248 (DTP/NCI, 2004).
Where “and” joins values, the source holds several entries; their conditions need not be identical. Equal values may be shown once. Toxic doses and inconclusive results are not listed. Rule as the data show it: active = T/C of 150% or more; inactive = T/C below 125%.

System: L1210 leukemia ip in BDF1 mice, survival T/C
Experiment: NCI In Vivo Anticancer Drug Screen. Data for tumor model L1210 Leukemia (intraperitoneal) in B6D2F1 (BDF1) mice
Conditions: endpoint: mean survival time, higher = longer survival
Method in brief: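 Tumor cells were implanted, animals were treated, and survival was followed. The result divides the treated measurement by the vehicle-control measurement.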

[1] = dose: 50.0 mg/kg/injection, schedule: Q01DX009 (ip), vehicle: saline
[2] = dose: 100.0 mg/kg/injection, schedule: Q01DX009 (ip), vehicle: saline
[3] = dose: 100.0 mg/kg/injection, schedule: Q04DX003 (ip), vehicle: saline
[4] = dose: 200.0 mg/kg/injection, schedule: Q01DX009 (ip), vehicle: saline
[5] = dose: 200.0 mg/kg/injection, schedule: Q04DX003 (ip), vehicle: saline
[6] = dose: 400.0 mg/kg/injection, schedule: Q04DX003 (ip), vehicle: saline
[7] = dose: 200.0 mg/kg/injection, schedule: Q01DX001 (ip), vehicle: saline
[8] = dose: 400.0 mg/kg/injection, schedule: Q01DX001 (ip), vehicle: saline
[9] = dose: 25.0 mg/kg/injection, schedule: Q04DX002 (ip), vehicle: Klucel (hydroxypropylcellulose) (HPC)
[10] = dose: 50.0 mg/kg/injection, schedule: Q04DX002 (ip), vehicle: Klucel (hydroxypropylcellulose) (HPC)
[11] = dose: 100.0 mg/kg/injection, schedule: Q04DX002 (ip), vehicle: Klucel (hydroxypropylcellulose) (HPC)
[12] = dose: 200.0 mg/kg/injection, schedule: Q04DX002 (ip), vehicle: Klucel (hydroxypropylcellulose) (HPC)
[13] = dose: 400.0 mg/kg/injection, schedule: Q04DX002 (ip), vehicle: Klucel (hydroxypropylcellulose) (HPC)
[14] = dose: 100.0 mg/kg/injection, schedule: Q01DX001 (ip), vehicle: carboxymethylcellulose (CMC)
[15] = dose: 200.0 mg/kg/injection, schedule: Q01DX001 (ip), vehicle: carboxymethylcellulose (CMC)
[16] = dose: 400.0 mg/kg/injection, schedule: Q01DX001 (ip), vehicle: carboxymethylcellulose (CMC)
[17] = dose: 50.0 mg/kg/injection, schedule: Q01DX009 (ip), vehicle: saline with Tween-80
[18] = dose: 100.0 mg/kg/injection, schedule: Q01DX001 (ip), vehicle: water

Measured: T/C

C=CC1COC=C2CN3CCc4cc(OC)c(O)cc4C3CC21 (stereo not drawn)
inactive: [1] 100 % of control | [2] 104 % of control | [3] 100 % of control | [4] 98 % of control | [5] 101 % of control | [6] 97 % of control

CC/C(=C(\CC)c1ccc(OC)cc1)c1ccc(O)cc1
inactive: dose: 15.0 mg/kg/injection, schedule: Q01DX Z (sc), vehicle: steriod suspending solution 105 % of control | dose: 30.0 mg/kg/injection, schedule: Q01DX Z (sc), vehicle: steriod suspending solution 106 % of control | dose: 60.0 mg/kg/injection, schedule: Q01DX Z (sc), vehicle: steriod suspending solution 96 % of control and 103 % of control | dose: 90.0 mg/kg/injection, schedule: Q01DX Z (sc), vehicle: steriod suspending solution 103 % of control | dose: 135.0 mg/kg/injection, schedule: Q01DX Z (sc), vehicle: steriod suspending solution 102 % of control | [7] 96 % of control | dose: 200.0 mg/kg/injection, schedule: Q01DX Z (sc), vehicle: steriod suspending solution 100 % of control | dose: 250.0 mg/kg/injection, schedule: Q01DX015 (sc), vehicle: steriod suspending solution 97 % of control | [8] 104 % of control | dose: 500.0 mg/kg/injection, schedule: Q01DX015 (sc), vehicle: steriod suspending solution 93 % of control | dose: 750.0 mg/kg/injection, schedule: Q01DX015 (sc), vehicle: steriod suspending solution 95 % of control | dose: 800.0 mg/kg/injection, schedule: Q01DX001 (ip), vehicle: saline 98 % of control | dose: 1000.0 mg/kg/injection, schedule: Q01DX015 (sc), vehicle: steriod suspending solution 90 % of control

CC(=O)CCC(C(C)=O)C(C)=O
inactive: dose: 100.0 mg/kg/injection, schedule: Q01DX001 (ip), vehicle: saline 106 % of control | [7] 106 % of control | [8] 103 % of control

O=C1OCC/C1=C\N1CCCCC1
inactive: [9] 113 % of control | [10] 98 % of control | [11] 98 % of control and 101 % of control

CC(=O)CCCCc1ccccc1
inactive: [11] 88 % of control | [12] 102 % of control | [13] 88 % of control

NC(CCl)=NCC1CCCCCC1
inactive: [9] 107 % of control | [10] 100 % of control | [11] 101 % of control

Cc1cn(C2CCCO2)c(=O)nc1NO (stereo not drawn)
inactive: [14] 104 % of control | [15] 95 % of control | [16] 98 % of control

CC(C(=O)O)c1ccccc1 (stereo not drawn)
inactive: dose: 12.5 mg/kg/injection, schedule: Q01DX009 (ip), vehicle: saline with Tween-80 95 % of control | dose: 25.0 mg/kg/injection, schedule: Q01DX009 (ip), vehicle: saline with Tween-80 95 % of control | [17] 95 % of control and 90 % of control

CCC[As](=O)(O)CCCc1ccccc1
inactive: dose: 0.78 mg/kg/injection, schedule: Q01DX009 (ip), vehicle: Klucel (hydroxypropylcellulose) (HPC) 100 % of control | dose: 1.56 mg/kg/injection, schedule: Q01DX009 (ip), vehicle: Klucel (hydroxypropylcellulose) (HPC) 87 % of control | dose: 3.13 mg/kg/injection, schedule: Q01DX009 (ip), vehicle: Klucel (hydroxypropylcellulose) (HPC) 101 % of control

Nc1nc(N)nc(-c2ccc(Cl)cc2)n1
inactive: dose: 25.0 mg/kg/injection, schedule: Q01DX001 (ip), vehicle: saline with Tween-80 96 % of control | dose: 50.0 mg/kg/injection, schedule: Q01DX001 (ip), vehicle: saline with Tween-80 98 % of control | dose: 100.0 mg/kg/injection, schedule: Q01DX001 (ip), vehicle: saline with Tween-80 101 % of control

CC1CC(C)NC(=S)N1 (stereo not drawn)
inactive: dose: 50.0 mg/kg/injection, schedule: Q04DX002 (ip), vehicle: saline with Tween-80 98 % of control | dose: 100.0 mg/kg/injection, schedule: Q04DX002 (ip), vehicle: saline with Tween-80 102 % of control | dose: 200.0 mg/kg/injection, schedule: Q04DX002 (ip), vehicle: saline with Tween-80 98 % of control

CC(C)C(=O)NC(Cc1ccccc1)C(=O)N(Cc1ccccc1)N=O (stereo not drawn)
inactive: dose: 32.0 mg/kg/injection, schedule: Q04DX002 (ip), vehicle: Klucel (hydroxypropylcellulose) (HPC) 94 % of control | dose: 63.0 mg/kg/injection, schedule: Q04DX002 (ip), vehicle: Klucel (hydroxypropylcellulose) (HPC) 97 % of control | dose: 125.0 mg/kg/injection, schedule: Q04DX002 (ip), vehicle: Klucel (hydroxypropylcellulose) (HPC) 94 % of control

Nc1cc2c3c(cccc3c1Br)C(=O)OC2=O
inactive: [11] 97 % of control | [12] 108 % of control

CC1(C)CC(OP(=O)(Cl)OC2CC(C)(C)N(O)C(C)(C)C2)CC(C)(C)N1O
inactive: [18] 97 % of control | dose: 200.0 mg/kg/injection, schedule: Q01DX001 (ip), vehicle: water 94 % of control | dose: 400.0 mg/kg/injection, schedule: Q01DX001 (ip), vehicle: water 94 % of control

O=C1C=C(O)C2=C(CCCC2)C1=O
inactive: [18] 96 % of control

COC(=O)C(N)Cc1ccc(O)c(O)c1 (stereo not drawn)
inactive: [2] 110 % of control | [3] 102 % of control | [4] 112 % of control | [5] 98 % of control | dose: 400.0 mg/kg/injection, schedule: Q01DX009 (ip), vehicle: saline 112 % of control | [6] 102 % of control

CC(C)SCC(N)CO (stereo not drawn)
inactive: dose: 12.5 mg/kg/injection, schedule: Q01DX009 (ip), vehicle: water 96 % of control | dose: 25.0 mg/kg/injection, schedule: Q01DX009 (ip), vehicle: water 96 % of control and 117 % of control | dose: 50.0 mg/kg/injection, schedule: Q01DX009 (ip), vehicle: water 99 % of control and 120 % of control | dose: 100.0 mg/kg/injection, schedule: Q01DX009 (ip), vehicle: water 100 % of control and 104 % of control | dose: 200.0 mg/kg/injection, schedule: Q01DX009 (ip), vehicle: water 108 % of control

CSc1ncc(CO)c(N)n1
inactive: dose: 50.0 mg/kg/injection, schedule: Q01DX001 (ip), vehicle: carboxymethylcellulose (CMC) 111 % of control | [14] 98 % of control | [15] 102 % of control | [16] 111 % of control

O=[N+]([O-])c1cccc(O)c1
inactive: [1] 99 % of control | [2] 92 % of control | dose: 100.0 mg/kg/injection, schedule: Q04DX003 (ip), vehicle: other 106 % of control | [4] 115 % of control | dose: 200.0 mg/kg/injection, schedule: Q04DX003 (ip), vehicle: other 112 % of control

C=C(C)C(=O)[O][Sn]([CH2]CCC)([CH2]CCC)[CH2]CCC
inactive: dose: 0.39 mg/kg/injection, schedule: Q01DX009 (ip), vehicle: saline 98 % of control | dose: 0.78 mg/kg/injection, schedule: Q01DX009 (ip), vehicle: saline 105 % of control | dose: 1.56 mg/kg/injection, schedule: Q01DX009 (ip), vehicle: saline 94 % of control | dose: 6.25 mg/kg/injection, schedule: Q01DX009 (ip), vehicle: saline 92 % of control

COc1ccc(C(O)c2cnc(C)n2Cc2ccccc2)cc1 (stereo not drawn)
inactive: dose: 100.0 mg/kg/injection, schedule: Q01DX001 (ip), vehicle: Klucel (hydroxypropylcellulose) (HPC) 93 % of control | dose: 100.0 mg/kg/injection, schedule: Q01DX009 (ip), vehicle: Klucel (hydroxypropylcellulose) (HPC) 101 % of control and 105 % of control | [11] 94 % of control and 98 % of control and 106 % of control | dose: 100.0 mg/kg/injection, schedule: Q04DX003 (ip), vehicle: Klucel (hydroxypropylcellulose) (HPC) 93 % of control | dose: 200.0 mg/kg/injection, schedule: Q01DX001 (ip), vehicle: Klucel (hydroxypropylcellulose) (HPC) 102 % of control | dose: 200.0 mg/kg/injection, schedule: Q01DX009 (ip), vehicle: Klucel (hydroxypropylcellulose) (HPC) 100 % of control and 101 % of control | [12] 92 % of control and 95 % of control and 88 % of control | dose: 200.0 mg/kg/injection, schedule: Q04DX003 (ip), vehicle: Klucel (hydroxypropylcellulose) (HPC) 93 % of control | dose: 400.0 mg/kg/injection, schedule: Q01DX001 (ip), vehicle: Klucel (hydroxypropylcellulose) (HPC) 97 % of control | dose: 400.0 mg/kg/injection, schedule: Q01DX009 (ip), vehicle: Klucel (hydroxypropylcellulose) (HPC) 96 % of control and 90 % of control | [13] 95 % of control and 98 % of control and 91 % of control | dose: 400.0 mg/kg/injection, schedule: Q04DX003 (ip), vehicle: Klucel (hydroxypropylcellulose) (HPC) 95 % of control

CCOc1ccc(NC(=O)NCCBr)cc1
inactive: [17] 94 % of control | dose: 100.0 mg/kg/injection, schedule: Q01DX009 (ip), vehicle: saline with Tween-80 94 % of control
